Entries after “also recorded” stand apart in the source; their conditions may differ.
Experiments:
[1] = tested on: PHZ-induced lethal hemolytic anemia mice; assay: PHZ lethal dose (135 mg/kg), FF oral gavage; assay type: in vivo; conditions: 0.1/0.5 mg/kg o.g.; PHZ 135 mg/kg; FIG. 54
Excerpt: Log-rank (Mantel-Cox) test. n=5 mice per group. All comparisons were done w.r.t. vehicle (DMSO) treated controls.

[2] = tested on: PHZ-induced lethal hemolytic anemia mice; assay: PHZ-mediated lethal hemolytic anemia, FF i.p.; assay type: in vivo; conditions: for body weights: 0.1/0.3 mg/kg
Method: To this end, 10-12 week old male C57BL/6J mice were first treated with a single lethal dose of 150 mg/kg PHZ followed by daily i.p. injections of either vehicle or 0.1/0.3 mg/kg FF. […] All control mice (n=5) were moribund and died by 3 days of lethal PHZ dose, whereas 3-4 mice in 0.1/0.3 mg/kg FF treatment groups are still surviving post 2 weeks of lethal dose (FIG. 42A). […] FF injections were stopped after 7 days of lethal PHZ treatment and it was observed that the body weights of mice were held steady (FIG. 42B). The body weights and survival of these mice are being monitored daily. This unexpected finding prompted us to repeat this lethal hemolytic anemia model in the female mice. […] The FF treatment lasted for 7 days after lethal PHZ dose and the body weights and survival of these mice are being monitored daily.

[3] = tested on: MDS patient-derived bone marrow cells; assay: Liquid erythroid differentiation culture of MDS patient-derived bone marrow cells (ex vivo); assay type: cell-based, human; conditions: for erythroid differentiation (CD235a): n=40 MDS patients
Excerpt: These findings prompted further testing to determine whether administration of FF in MDS patient-derived bone marrow (BM) samples improves erythroid differentiation in an ex vivo setting. To explore this, cells isolated from BM aspirates of de-identified MDS patients were procured. Next, the MDS patient-derived BM cells were placed in liquid erythroid differentiation culture, as previously described (Khajuria et al. (2018) Cell 173: 90-103), with or without FF treatment. […] To further validate this observation, the impact of FF from another vendor (Sigma) was tested on MDS patient-derived cells. […] Next, CD34+ progenitors were FACS-sorted from the MDS patient-derived BM aspirates and seeded in semi-solid methylcellulose culture media with vehicle (DMSO) or FF treatment. […] Therefore, the FDA-approved drug formoterol fumarate could be repurposed to reverse anemia in a range of hematological disorders.
CD34+ primary human hematopoietic stem and progenitor cells (HSPCs) were obtained from Fred-Hutchinson Cancer Research center, Seattle, USA and cultured, as previously described. Formoterol fumarate was purchased from Selleckchem (#S2020) and Sigma (#F9552), dissolved (in DMSO) and stored as per manufacturer's instructions, and used at the final working concentrations as indicated. Frozen BM aspirates from de-identified MDS patients were obtained using our IRB approved protocol (#21-632) from the Pasquarello tissue bank at DFCI.

[4] = tested on: NUP98-HOXD13 transgenic mice; assay: FF i.p. in MDS/AML mice (NUP98-HOXD13 transgenic); assay type: in vivo; conditions: 0.3 mg/kg thrice weekly i.p.
Method: FIG. 71A, FIG. 71B and FIG. 71C show FF treatment at a low dose of 0.3 mg/kg thrice weekly (i.p.) alleviates RBC parameters in PB of MDS/AML mice, such as RBCs, hemoglobin (Hb) and hematocrit (HCT%). * p<0.05, ** p <0.01, **** p<0.0001, ANOVA. n=5-7 mice per group. Veh: vehicle; LC: littermate control.

[5] = tested on: Apcmin mice; assay: FF i.p. in Apcmin mice (intestinal adenoma model that develops anemia); assay type: in vivo
Method: This is a mouse model of intestinal adenoma that develops anemia. FF treatment at a low dose of 0.3 mg/kg daily (i.p.) alleviates RBC parameters, such as (FIG. 74A) RBCs (FIG. 74B) hematocrit% (HCT%) and (FIG. 74C) hemoglobin (Hb) in Apcmin mice that spontaneously develop anemia at ~3 months age. * p<0.05, *** p<0.001, 2-way ANOVA. n=5-6 mice per group. Comparisons are shown in between Apcmin+FF versus Apcmin+Veh. Veh: vehicle; LC: littermate control mice.

[6] = tested on: wild-type C57BL/6J mice; assay: Dose-specific effects of FF i.p. daily for 30 days in naive wild-type mice (Example 3); assay type: in vivo; conditions: for monocyte counts: FIG. 85B; for hemoglobin (Hb) levels: FIG. 84A; for RBC parameters (Hb, HCT %, RBC numbers): FIG. 84
Method: As described in Example 1 above, formoterol fumarate (FF) treatment of wild-type mice was well-tolerated (FIGS. 14A-14E). The effects of varying doses of FF from 0.1 up to 1.0 mg/kg were evaluated in naive mice without any external stress of phenylhydrazine (PHZ). Specifically, varying doses of FF 0.1-0.3-0.5-1.0 mg/kg or vehicle (0.3% DMSO in saline) were administered via intraperitoneal (i.p.) injection in 10-12 week old wild-type C57BL/6J mice daily for a period of 30 days.

[7] = female, PHZ 120 mg/kg, FF 0.1 mg/kg, n=5
[8] = female, PHZ 120 mg/kg, FF 0.3 mg/kg, n=5
[9] = male, PHZ 150 mg/kg, FF 0.1 mg/kg, n=5
[10] = male, PHZ 150 mg/kg, FF 0.3 mg/kg, n=5

Compound: COc1ccc(C[C@@H](C)NC[C@H](O)c2ccc(O)c(NC=O)c2)cc1.O=C(O)/C=C/C(=O)O [FF, (E)-but-2-enedioic acid;N-[2-hydroxy-5-[(1R)-1-hydroxy-2-[[(2R)-1-(4-methoxyphenyl)propan-2-yl]amino]ethyl]phenyl]formamide]
- survival (Kaplan-Meier) [1]: confers striking survival benefits
- survival (Kaplan-Meier) ([2]; female mice, PHZ 120 mg/kg, FF 0.1/0.3 mg/kg, FIG. 42C): provided prominent survival benefits
- body weights ([2]; female, PHZ 120 mg/kg, FIG. 42D): similarly revived body weights; also recorded: steadily increases body weights of female mice
- mice died on day 2 [2, 7]: 1 mouse
- mice still surviving post lethal PHZ dose [2, 7]: 4 mice
- mice died on day 2 [2, 8]: 2 mice
- mice still surviving post lethal PHZ dose [2, 8]: 3 mice
- survival (Kaplan-Meier) ([2]; male mice, PHZ 150 mg/kg, FF 0.1/0.3 mg/kg daily i.p., FIG. 42A): produced striking survival benefits
- mice still surviving post 2 weeks of lethal dose ([2]; male, PHZ 150 mg/kg, 0.1/0.3 mg/kg FF groups, n=5): 3-4 mice
- body weights ([2]; male, PHZ 150 mg/kg, FIG. 42B): produced remarkable revival in body weights; also recorded: steadily increases body weights of male mice
- mice died on day 2 [2, 9]: 2 mice
- mice still surviving post lethal PHZ dose [2, 9]: 3 mice
- mice died on day 2 [2, 10]: 1 mouse
- mice still surviving post lethal PHZ dose [2, 10]: 4 mice
- myelopoiesis/megakaryopoiesis ([3]; 40 MDS patient-derived cells, FIG. 9): does not affect myelopoiesis/megakaryopoiesis
- erythroid differentiation (CD235a) ([3]; FF from Selleckchem, FIG. 8A): significantly enhanced erythroid differentiation in BM cells in the majority of MDS patients; also recorded: enhances erythroid differentiation in MDS patient-derived bone marrow cells
- erythroid differentiation (CD235a) ([3]; FF from Sigma, FIG. 8B): boosted erythropoiesis in the majority of MDS patients; also recorded: enhances erythroid differentiation in MDS patient-derived bone marrow cells
- RBC parameters (RBCs, Hb, HCT%) in PB ([4]; FIG. 71): elevates RBC parameters
- platelets and WBCs in peripheral blood ([4]; FIG. 72A-72B): has no impact
- apoptosis (Annexin V staining) in the bone marrow ([4]; FIG. 72C): has no impact
- erythroid progenitors in the BM ([4]; FIG. 73A): elevates erythroid progenitors
- GMP and MkP in the BM ([4]; FIG. 73B-73C): does not affect
- RBC parameters (RBCs, HCT%, Hb) ([5]; 0.3 mg/kg daily i.p., FIG. 74): elevates RBC parameters
- body weight ([5]; FIG. 75): modestly increases body weight
- monocyte counts ([6]; 0.1 mg/kg and 1.0 mg/kg): but not at the lowest dose (0.1 mg/kg) or highest dose (1.0 mg/kg)
- hemoglobin (Hb) levels ([6]; 0.1 mg/kg to 0.5 mg/kg): increased with dose
- hematocrit (HCT) % and RBC counts ([6]; 0.3 mg/kg and 0.5 mg/kg, FIG. 84B-84C): elevated
- body weights ([6]; 1.0 mg/kg): pronounced increase in body weights
- RBC parameters (Hb, HCT %, RBC numbers) ([6]; 1.0 mg/kg): this effect is not observed
- hemoglobin (Hb) levels ([6]; 1.0 mg/kg): no effect was observed
- white blood cell (WBC) count ([6]; 1.0 mg/kg, FIG. 85A): modestly impacts WBC; also recorded: only marginally affected
- body weights ([6]; 0.1-0.5 mg/kg): modestly increasing body weights
- % change in body weights ([6]; 0.1/0.3/0.5/1.0 mg/kg daily i.p., FIG. 83): increases body weights in a dose-dependent manner; also recorded: showed a dose-dependent increase in body-weight
- RBC parameters (Hb, HCT %, RBC numbers) ([6]; 0.3 and 0.5 mg/kg): enhance and sustain RBC parameters
- monocyte counts ([6]; 0.3 and 0.5 mg/kg): modestly impacts monocyte counts; also recorded: marginally affected
- platelets ([6]; any dose, FIG. 85C): No significant effect was observed
- white blood count (WBC) numbers ([6]; lowest doses, FIG. 85A): does not influence

From patent US12697313B2, “Methods of treating anemia using formoterol or a pharmaceutically acceptable salt thereof” (Dana-Farber Cancer Institute, Inc., priority 2022, dated 2026)
